Laboratory results taken from patent publication US11311015B2, “Herbicidal combination” (UPL LIMITED, priority 2018, dated 2022).

Test system: yellow nutsedge
Experiment: Field trial, post-emergence control of yellow nutsedge (Blacksburg, Va.)
Assay type: in vivo, Cyperus esculentus
Details: for Yellow nut sedge (Percentage weed cover), 05/07 / Yellow nut sedge (Percentage weed cover), 13/06 / Yellow nut sedge (Percentage weed cover), 20/6 / Yellow nut sedge (Percentage Control), 05/07 / Yellow nut sedge (Percentage Control), 13/06 / Yellow nut sedge (Percentage Control), 20/6: post-emergence field plots, dosage 1X single, 0.5X two-way; for Yellow nut sedge (Percentage weed cover), 05/07: rating date 05/07 (29 DAT), untreated 59; for Yellow nut sedge (Percentage weed cover), 05/07 / Yellow nut sedge (Percentage weed cover), 13/06 / Yellow nut sedge (Percentage weed cover), 20/6 / Yellow nut sedge (Percentage Control), 05/07 / Yellow nut sedge (Percentage Control), 20/6: 0.33X three-way; for Yellow nut sedge (Percentage weed cover), 13/06: rating date 13/06, untreated 50; for Yellow nut sedge (Percentage weed cover), 20/6: rating date 20/6, untreated 49; for Yellow nut sedge (Percentage Control), 05/07: trial initiated June 6, rating date 05/07 (29 DAT); for Yellow nut sedge (Percentage Control), 13/06: trial initiated June 6, rating date 13/06, 0.33X three-way (rates Table 2); for Yellow nut sedge (Percentage Control), 20/6: trial initiated June 6, rating date 20/6; for Burn down / residual control of sedges, result in words: speed of burn down, onset of plant necrosis
Experimental: An exemplary combination according to the invention was used for sedge and broadleaf weed control for agricultural crops, turf, ornamentals, and landscape. The exemplary combination was used for the post-emergence control of sedges, as well as the control/suppression of various broadleaf and grassy weeds.
A field trial was conducted to evaluate the effectiveness of the combinations of three active ingredients according to the invention when used post emergence, at different rates, compared to industry standards—stand alone and 2 way mixture of compounds for efficacy of yellow nutsedge. The active ingredient combination used in the trial was bentazon+halosulfuron+sulfentrazone. The trial was conducted in Blacksburg, Va. and was initiated on June 6 under Protocol #BRLM-62-US-VA-18-10-BTC. The plots were in fallow area primarily covered with yellow nutsedge and tall fescue, and were sprayed at 4 week intervals. (2 applications total). The application dosages of the herbicides, when used in isolation and when used in the combinations were as follows: […]

| SMILES | Yellow nut sedge (Percentage weed cover), 05/07 [%] | Yellow nut sedge (Percentage weed cover), 13/06 [%] | Yellow nut sedge (Percentage weed cover), 20/6 [%] | Yellow nut sedge (Percentage Control), 05/07 [%] | Yellow nut sedge (Percentage Control), 13/06 [%] | Yellow nut sedge (Percentage Control), 20/6 [%] | Weed control of yellow nutsedge, result in words (post-emergence field trial, compared to individual products and 2 way mixes) | Burn down / residual control of sedges, result in words |
| --- | --- | --- | --- | --- | --- | --- | --- | --- |
| CC(C)N1C(=O)c2ccccc2NS1(=O)=O [Bentazone] | 10 | 40 | 8 | 76 | 65 | 75 | did not provide sufficient weed control | fairly rapid burn down of some of the sedges |
| COC(=O)c1c(Cl)nn(C)c1S(=O)(=O)NC(=O)Nc1nc(OC)cc(OC)n1 [Halosulfuron, Halosulfuron-methyl] | 8 | 50 | 16 | 81 | 36 | 60 | – | delayed response of up to four weeks before plant necrosis began |
| Cc1nn(-c2cc(NS(C)(=O)=O)c(Cl)cc2Cl)c(=O)n1C(F)F [Sulfentrazone] | 9 | 44 | 11 | 75 | 58 | 73 | – | fairly rapid burn down of some of the sedges |
